Results on two molecules are retold here after PMC7048748, “Anxiolytic Drug FGIN-1-27 Ameliorates Autoimmunity by Metabolic Reprogramming of Pathogenic Th17 Cells” (Scientific Reports, 2020).

Structures are written as SMILES.

The test system of one assay is Th17 cells. The experiment in a line: Rescue of IL-17 production by NAC pre-treatment. In kind it is cell-based, mouse. The following applies: NAC 1 µM pre-treatment, 10 µM FGIN-1-27. On the procedure: Figure 5 FGIN-1-27 induces amino acid starvation response (AAR). (a) MA-plot showing shrunken log2 fold-changes of detected genes between the DMSO and FGIN-1-27 RNA-seq samples, ranked by average normalized count. Red dots indicate differentially expressed genes at adjusted p-value <0.05. (b) Transcript levels for the indicated genes after 24 hours of treatment with DMSO or FGIN-1-27 quantified by qPCR. The error bars represent SD. (c) Western blot analysis for phosphorylated eIF2α and ATF4 24 hours after treatment with DMSO or FGIN-1-27 (5 and 10 µM). Data are representative of 3 independent experiments. (d) Amino acids in Th17 cells measured 72 hours after treatment with FGIN-1-27. The error bars represent SD. (e) ROS was measured using cell permeant reagent 2′,7′ –dichlorofluorescin diacetate (DCFDA) at 24 hours following treatment with FGIN-1-27. Filled grey histogram-DMSO, dotted line-FGIN-1-27 (10 µM) and dashed line indicates FGIN-1-27 (5 µM). (f) Dose response plot showing effect of FGIN-1-27 on intracellular IL-17 after pre-treatment with NAC (1 µM). […]
Increased amino acid synthesis and transport is characteristic of the amino acid starvation response (AAR)[20]. […] Induction of ATF4 can be an indication of oxidative stress and we measured reactive oxygen species (ROS) using the cell permeant reagent 2′,7′ –dichlorofluorescin diacetate (DCFDA).

The test system of the next assay is Th17 responses. Also on record: method as in PMID 19498172. The following applies: activation of the AAR; cited from earlier work.

For `CC(=O)N[C@@H](CS)C(=O)O` [NAC, N-acetyl cysteine], in the assay on Th17 cells, the “rescue of defective IL-17 production” value amounted to 14%.

Regarding `O=C(CC1NCCCC1O)Cn1cnc2cc(Br)c(Cl)cc2c1=O` (centres unmarked) [halofuginone], the Th17 responses entry in the assay with Th17 responses is listed as “down-regulate Th17 responses”.
